This passage reports melting point results from patent publication US7915281B2, “Isoxazole, dihydroisoxazole, and oxadiazole substituted imidazo ring compounds and method” (3M Innovative Properties Company, priority 2004, dated 2011).

In turn, `CCOCc1nc2c(N)nc3ccccc3c2n1CCCc1cc(C)no1` [Example 8, 2-(Ethoxymethyl)-1-[3-(3-methylisoxazol-5-yl)propyl]-1H-imidazo[4,5-c]quinolin-4-amine] gave a melting point of 163 to 164 °C.

With `Nc1nc2c(c3c1ncn3Cc1cc(-c3ccc(F)cc3)no1)NCCC2` [Example 17, 1-{[3-(4-Fluorophenyl)isoxazol-5-yl]methyl}-6,7,8,9-tetrahydro-1H-imidazo[4,5-c][1,5]naphthyridin-4-amine], the melting point lay in the range of 227 to 228 °C.

Compound `CCCCc1cc(Cn2cnc3c(N)nc4ccccc4c32)no1` [Example 35, 1-[(5-Butylisoxazol-3-yl)methyl]-1H-imidazo[4,5-c]quinolin-4-amine] registered a melting point of 201 to 203 °C.

Regarding `CCCc1nc2c(N)nc3cccnc3c2n1Cc1cc(-c2ccc(F)cc2)no1` [Example 14, 1-{[3-(4-Fluorophenyl)isoxazol-5-yl]methyl}-2-propyl-1H-imidazo[4,5-c][1,5]naphthyridin-4-amine], the melting point lay within 238 to 239 °C.

On to `Cc1nc(N)c2ncn(Cc3cc(-c4ccc(F)cc4)no3)c2c1C` [Example 18, 1-{[3-(4-Fluorophenyl)isoxazol-5-yl]methyl}-6,7-dimethyl-1H-imidazo[4,5-c]pyridin-4-amine], for which the melting point is 244 to 246 °C.

On to `CCOCc1nc2c(N)nc3ccccc3c2n1Cc1cc(-c2ccc(F)cc2)no1` [Example 30, 2-(Ethoxymethyl)-1-{[3-(4-fluorophenyl)isoxazol-5-yl]methyl}-1H-imidazo[4,5-c]quinolin-4-amine], for which the melting point was in the range of 203 to 204 °C.

The compound `Nc1nc2cccnc2c2c1nc(CO)n2Cc1cc(-c2ccc(F)cc2)no1` [Example 15, (4-Amino-1-{[3-(4-fluorophenyl)isoxazol-5-yl]methyl}-1H-imidazo[4,5-c][1,5]naphthyridin-2-yl)methanol] came in with a melting point of 247 to 248 °C.

Regarding `Nc1nc2ccccc2c2c1nc(CF)n2Cc1cc(-c2ccc(F)cc2)no1` [Example 32, 2-(Fluoromethyl)-1-{[3-(4-fluorophenyl)isoxazol-5-yl]methyl}-1H-imidazo[4,5-c]quinolin-4-amine], the melting point fell in the range of 192 to 193 °C.

`CCOCc1nc2c(N)nc3ccccc3c2n1CCCc1cc(-c2cccnc2)no1` [Example 6, 2-(Ethoxymethyl)-1-[3-(3-pyridin-3-ylisoxazol-5-yl)propyl]-1H-imidazo[4,5-c]quinolin-4-amine] came in with a melting point of 199 to 200 °C.

`CCOCc1nc2c(N)nc3ccccc3c2n1CCN1C(C)=NOC12CCCC2` [Example 16, 2-(Ethoxymethyl)-1-[2-(3-methyl-1-oxa-2,4-diazaspiro[4,4]non-2-en-4-yl)ethyl]-1H-imidazo[4,5-c]quinolin-4-amine] had a melting point of 211 to 213 °C.

For the compound `CCc1nc2c(N)nc(C)c(C)c2n1Cc1cc(-c2ccc(F)cc2)no1` [Example 21, 2-Ethyl-1-{[3-(4-fluorophenyl)isoxazol-5-yl]methyl}-6,7-dimethyl-1H-imidazo[4,5-c]pyridin-4-amine], the melting point lay within 255 to 256 °C.

As for `CCCc1nc2c(N)nc3ccccc3c2n1Cc1cc(-c2cccnc2)on1` [Example 36, 2-Propyl-1-[(5-pyridin-3-ylisoxazol-3-yl)methyl]-1H-imidazo[4,5-c]quinolin-4-amine], the melting point is 206 to 207 °C.

`CCCc1nc2c(N)nc3ccccc3c2n1Cc1cc(-c2ccc(F)cc2)no1` [Example 27, 1-{[3-(4-Fluorophenyl)isoxazol-5-yl]methyl}-2-propyl-1H-imidazo[4,5-c]quinolin-4-amine] showed a melting point of 226 to 227 °C.

Regarding `CCOCc1nc2c(N)nc3ccccc3c2n1CCN1C(C)=NOC1(C)C` [Example 10, 2-Ethoxymethyl-1-[2-(3,5,5-trimethyl-1,2,4-oxadiazol-4(5H)-yl)ethyl]-1H-imidazo[4,5-c]quinolin-4-amine], the melting point was in the range of 204 to 205 °C.

The compound `CCOCc1nc2c(N)nc3ccccc3c2n1CCCc1cc(-c2ccccc2)no1` [Example 7, 2-(Ethoxymethyl)-1-[3-(3-phenylisoxazol-5-yl)propyl]-1H-imidazo[4,5-c]quinolin-4-amine] displayed a melting point of 171 to 172 °C.

With `Cc1nc2c(N)nc3cccnc3c2n1Cc1cc(-c2ccc(F)cc2)no1` [Example 13, 1-{[3-(4-Fluorophenyl)isoxazol-5-yl]methyl}-2-methyl-1H-imidazo[4,5-c][1,5]naphthyridin-4-amine], the melting point was in the range of 239 to 240 °C.

In turn, `CCOCc1nc2c(N)nc3ccccc3c2n1CCc1cc(-c2ccc(F)cc2)no1` [Example 33, 2-(Ethoxymethyl)-1-{2-[3-(4-fluorophenyl)isoxazol-5-yl]ethyl}-1H-imidazo[4,5-c]quinolin-4-amine] came in with a melting point of 180 to 181 °C.

In turn, `CCOCc1nc2c(N)nc3ccccc3c2n1CC1CC(c2ccccc2)=NO1` (stereo not shown) [Example 2, 2-(Ethoxymethyl)-1-[(3-phenyl-4,5-dihydroisoxazol-5-yl)methyl]-1H-imidazo[4,5-c]quinolin-4-amine] came in with a melting point of 235 to 237 °C.

`Cc1nc2c(N)nc3ccccc3c2n1Cc1cc(-c2ccc(F)cc2)no1` [Example 28, 1-{[3-(4-Fluorophenyl)isoxazol-5-yl]methyl}-2-methyl-1H-imidazo[4,5-c]quinolin-4-amine]: the melting point lay within 294 to 296 °C.

For the compound `Nc1nc2ccccc2c2c1ncn2Cc1cc(-c2ccc(F)cc2)no1` [Example 25, 1-{[3-(4-Fluorophenyl)isoxazol-5-yl]methyl}-1H-imidazo[4,5-c]quinolin-4-amine], the melting point is 259 to 260 °C.

Take `CCOCc1nc2c(N)nc(C)c(C)c2n1Cc1cc(-c2ccc(F)cc2)no1` [Example 19, 2-(Ethoxymethyl)-1-{[3-(4-fluorophenyl)isoxazol-5-yl]methyl}-6,7-dimethyl-1H-imidazo[4,5-c]pyridin-4-amine]: the melting point lay within 246 to 247 °C.

Take `CCOCc1nc2c(N)nc3ccccc3c2n1Cc1cc(-c2cccnc2)no1` [Example 5, 2-(Ethoxymethyl)-1-[(3-pyridin-3-ylisoxazol-5-yl)methyl]-1H-imidazo[4,5-c]quinolin-4-amine]: the melting point was 240 to 242 °C.

For the compound `CCOCc1nc2c(N)nc3cccnc3c2n1Cc1cc(-c2ccc(F)cc2)no1` [Example 12, 2-(Ethoxymethyl)-1-{[3-(4-fluorophenyl)isoxazol-5-yl]methyl}-1H-imidazo[4,5-c][1,5]naphthyridin-4-amine], the melting point was 190 to 191 °C.

On to `Fc1ccc(-c2cc(Cn3cnc4c(Cl)nc5ccccc5c43)on2)cc1` [Example 24, 4-Chloro-1-{[3-(4-fluorophenyl)isoxazol-5-yl]methyl}-1H-imidazo[4,5-c]quinoline], for which the melting point was in the range of 219 to 220 °C.

`CCc1nc2c(N)nc3ccccc3c2n1Cc1cc(-c2ccc(F)cc2)no1` [Example 26, 2-Ethyl-1-{[3-(4-fluorophenyl)isoxazol-5-yl]methyl}-1H-imidazo[4,5-c]quinolin-4-amine] showed a melting point of 232 to 233 °C.

`CCOCc1nc2c(N)nc3ccccc3c2n1Cc1cc(C)no1` [Example 4, 2-(Ethoxymethyl)-1-[(3-methylisoxazol-5-yl)methyl]-1H-imidazo[4,5-c]quinolin-4-amine] returned a melting point of 178 to 180 °C.

Compound `CCOCc1nc2c(N)nc3ccccc3c2n1Cc1cc(-c2ccccc2)on1` [Example 37, 2-(Ethoxymethyl)-1-[(5-phenylisoxazol-3-yl)methyl]-1H-imidazo[4,5-c]quinolin-4-amine] yielded a melting point of 221 to 223 °C.

The compound `Nc1nc2cccnc2c2c1ncn2Cc1cc(-c2ccc(F)cc2)no1` [Example 11, 1-{[3-(4-Fluorophenyl)isoxazol-5-yl]methyl}-1H-imidazo[4,5-c][1,5]naphthyridin-4-amine] returned a melting point of 265 to 266 °C.

The compound `CCOCc1nc2c(N)nc3ccccc3c2n1Cc1cc(-c2ccccc2)no1` [Example 3, 2-(Ethoxymethyl)-1-[(3-phenylisoxazol-5-yl)methyl]-1H-imidazo[4,5-c]quinolin-4-amine] came in with a melting point of 215 to 216 °C.

`CCOCc1nc2c(N)nc(C)c(C)c2n1Cc1cc(-c2cccnc2)no1` [Example 9, 2-(Ethoxymethyl)-6,7-dimethyl-1-[(3-pyridin-3-ylisoxazol-5-yl)methyl]-1H-imidazo[4,5-c]pyridin-4-amine] registered a melting point of 189 to 191 °C.

Consider `CCCc1nc2c(N)nc3ccccc3c2n1CCc1cc(-c2ccc(F)cc2)no1` [Example 34, 1-{2-[3-(4-Fluorophenyl)isoxazol-5-yl]ethyl}-2-propyl-1H-imidazo[4,5-c]quinolin-4-amine], for which the melting point was in the range of 208 to 209 °C.

The compound `CCCc1nc2c(N)nc(C)c(C)c2n1Cc1cc(-c2ccc(F)cc2)no1` [Example 23, 1-{[3-(4-Fluorophenyl)isoxazol-5-yl]methyl}-6,7-dimethyl-2-propyl-1H-imidazo[4,5-c]pyridin-4-amine] gave a melting point of 227 to 229 °C.

Compound `Nc1nc2ccccc2c2c1nc(CO)n2Cc1cc(-c2ccc(F)cc2)no1` [Example 31, (4-Amino-1-{[3-(4-fluorophenyl)isoxazol-5-yl]methyl}-1H-imidazo[4,5-c]quinolin-2-yl)methanol] displayed a melting point of 262 to 263 °C.

On to `CCOCc1nc2c(Cl)nc3ccccc3c2n1Cc1cc(-c2ccc(F)cc2)no1` [Example 29, 4-Chloro-2-(ethoxymethyl)-1-{[3-(4-fluorophenyl)isoxazol-5-yl]methyl}-1H-imidazo[4,5-c]quinoline], for which the melting point was in the range of 189 to 190 °C.

On to `CCOCc1nc2c(N)nc3ccccc3c2n1CC1CC(C)=NO1` (stereo not shown) [Example 1, 2-(Ethoxymethyl)-1-[(3-methyl-4,5-dihydroisoxazol-5-yl)methyl]-1H-imidazo[4,5-c]quinolin-4-amine], for which the melting point lay within 204 to 205 °C.

With `Cc1nc(N)c2nc(C)n(Cc3cc(-c4ccc(F)cc4)no3)c2c1C` [Example 22, 1-{[3-(4-Fluorophenyl)isoxazol-5-yl]methyl}-2,6,7-trimethyl-1H-imidazo[4,5-c]pyridin-4-amine], the melting point lay in the range of 278 to 279 °C.

As for `Cc1nc(N)c2nc(CO)n(Cc3cc(-c4ccc(F)cc4)no3)c2c1C` [Example 20, (4-Amino-1-{[3-(4-fluorophenyl)isoxazol-5-yl]methyl}-6,7-dimethyl-1H-imidazo[4,5-c]pyridin-2-yl)methanol], the melting point fell in the range of 164 to 165 °C.
